Data on nine molecules can be found in PubChem BioAssay (NCI).

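Protocol summary: plate cells (96-well), add compound at 5 concentrations, incubate 48 h, interpolate endpoints linearly. GI50 is the concentration that inhibits growth by half. At the TGI there is no net growth.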

Some test systems named below: CCRF-CEM leukemia; SK-OV-3 ovarian; A549 NSCLC; UACC-62 melanoma; K-562 leukemia; SF-539 CNS; SW-620 colon; HOP-62 NSCLC; OVCAR-3 ovarian; TK-10 renal.
What all share (assay): growth of human tumour cells (NCI), 48 h

Regarding `Cc1ccc(NC(=O)c2sc3nc(C)c(C(O)c4ccccc4)cc3c2N)cc1` (stereo not given), the GI50 is 375 nM in the experiment on CCRF-CEM leukemia; 768 nM in the experiment on SK-OV-3 ovarian; 640 nM with A549 NSCLC; 621 nM with UACC-62 melanoma; 333 nM in the experiment on K-562 leukemia; 287 nM in the experiment on SF-539 CNS. Further, the GI50 in the experiment on SW-620 colon is 355 nM; in the experiment with HOP-62 NSCLC it was 716 nM; with OVCAR-3 ovarian it was 351 nM; with TK-10 renal it was 2120 nM. Moreover, the TGI in the experiment with CCRF-CEM leukemia is greater than 49.7 µM; in the experiment with SK-OV-3 ovarian, 30.6 µM; in the experiment with A549 NSCLC, 32.7 µM; in the experiment on UACC-62 melanoma, greater than 100 µM; in the experiment with K-562 leukemia, greater than 100 µM; with SF-539 CNS, 1.3 µM. The TGI with SW-620 colon amounted to 52.7 µM; in the experiment on HOP-62 NSCLC, 23.6 µM; in the experiment on OVCAR-3 ovarian, 11.4 µM; in the experiment with TK-10 renal, 36.4 µM.

Turning to `Cc1nc(-c2ccccc2)c(-c2ccccc2)s1`, the TGI was 40.3 µM in the experiment with CCRF-CEM leukemia; greater than 100 µM with SK-OV-3 ovarian; 89 µM in the experiment with A549 NSCLC; 56.8 µM in the experiment with UACC-62 melanoma; 57.2 µM with K-562 leukemia; 71.4 µM in the experiment with SF-539 CNS. In addition, the TGI in the experiment with SW-620 colon is 39.6 µM; with HOP-62 NSCLC, greater than 100 µM; with OVCAR-3 ovarian, 87.4 µM; with TK-10 renal, 52.8 µM.

Take `Cc1[nH]c2ccccc2c1C1Cc2ccccc2N1C(=O)/C(Cl)=C/c1ccccc1` (stereo not given): the TGI in the experiment on CCRF-CEM leukemia, in the experiment with SK-OV-3 ovarian, with A549 NSCLC, in the experiment on UACC-62 melanoma, with K-562 leukemia and in the experiment on SF-539 CNS was greater than 100 µM each time. The TGI in the experiment with SW-620 colon, in the experiment on HOP-62 NSCLC, with OVCAR-3 ovarian and in the experiment on TK-10 renal was greater than 100 µM throughout.

With `N#CCC(=O)NC1C2CC3CC(C2)CC1C3` (stereo not given), the TGI is greater than 100 µM in the experiment on CCRF-CEM leukemia; 78.6 µM with SK-OV-3 ovarian; greater than 100 µM with A549 NSCLC; 28.7 µM with UACC-62 melanoma; greater than 100 µM in the experiment with K-562 leukemia; 32.3 µM in the experiment on SF-539 CNS. Moreover, the TGI in the experiment on SW-620 colon worked out at 51.7 µM; in the experiment on HOP-62 NSCLC, 41.7 µM; in the experiment with OVCAR-3 ovarian, 32 µM; with TK-10 renal it was 46.2 µM.

Consider `Cn1cnc([N+](=O)[O-])c1[Se]c1nc(N)nc2c1ncn2C1OC(CO)C(O)C1O` (stereo not given), for which the TGI with CCRF-CEM leukemia, in the experiment with SK-OV-3 ovarian, in the experiment on A549 NSCLC, in the experiment on UACC-62 melanoma, in the experiment with K-562 leukemia and in the experiment on SF-539 CNS was greater than 100 µM throughout. In addition, the TGI with SW-620 colon, in the experiment with HOP-62 NSCLC, in the experiment on OVCAR-3 ovarian and in the experiment on TK-10 renal was greater than 100 µM throughout.

Consider `COC(=O)C(=Cc1cc(OC)c(OC)c(OC)c1-c1cc2c(cc1C(C)=O)OCO2)C(=O)OC`, for which the TGI with CCRF-CEM leukemia was greater than 211 µM; in the experiment on SK-OV-3 ovarian, greater than 211 µM; in the experiment on A549 NSCLC, 165 µM; in the experiment on UACC-62 melanoma, 73.8 µM; in the experiment with K-562 leukemia, greater than 211 µM; with SF-539 CNS, 88.2 µM. In addition, the TGI in the experiment with SW-620 colon was 102 µM; with HOP-62 NSCLC it was 67.1 µM; in the experiment on OVCAR-3 ovarian, 56.2 µM; in the experiment with TK-10 renal, 187 µM.

`COc1ccc(-c2cc(=O)c3ccccc3[nH]2)c(OC)c1`: the TGI in the experiment with CCRF-CEM leukemia, with SK-OV-3 ovarian, in the experiment on A549 NSCLC, with UACC-62 melanoma, in the experiment on K-562 leukemia and in the experiment on SF-539 CNS was greater than 100 µM in each case. In addition, the TGI in the experiment on SW-620 colon, in the experiment on HOP-62 NSCLC, with OVCAR-3 ovarian and in the experiment with TK-10 renal was greater than 100 µM throughout.

In the case of `CN(C)C(c1ccccc1)C(O)c1ccccc1` (stereo not given), the TGI in the experiment on CCRF-CEM leukemia, in the experiment on SK-OV-3 ovarian, in the experiment with A549 NSCLC, with UACC-62 melanoma, with K-562 leukemia and in the experiment with SF-539 CNS was greater than 100 µM in each case. Besides, the TGI in the experiment with SW-620 colon, in the experiment with HOP-62 NSCLC, with OVCAR-3 ovarian and in the experiment on TK-10 renal was greater than 100 µM each time.

For the molecule `OC/C=C(\I)CCCOCOCc1ccccc1`, the TGI is 46.1 µM with CCRF-CEM leukemia; greater than 100 µM in the experiment on SK-OV-3 ovarian; greater than 100 µM with A549 NSCLC; greater than 100 µM in the experiment with UACC-62 melanoma; greater than 100 µM with K-562 leukemia; greater than 100 µM in the experiment on SF-539 CNS. In addition, the TGI in the experiment with SW-620 colon, in the experiment on HOP-62 NSCLC, with OVCAR-3 ovarian and with TK-10 renal was greater than 100 µM throughout.
